Data as given in patent US8617563B2, “Antichlamydial agents” (Duke University, priority 2011, dated 2013).
Where no end group is shown, it is not given here.

Assays:
[1] = test system: HeLa cells pre-infected with L2; test: Secondary EB infection of pre-infected HeLa cells (Tarp translocation, stability, EB entry); format: cell-based, C. trachomatis
Experimental: FIG. 8 depicts (A-C(I-IV)) Tarp translocated by EBs is a target of CPAF-mediated degradation. Uninfected and HeLa cells pre-infected with L2 for 30 hrs were treated with inhibitory peptides and infected with EBs for 10 min Tarp translocation was indirectly visualized with an anti-phosphotyrosine antibody (A) and quantified by counting 50 separate cells (B). The stability of newly translocated Tarp was assessed by infecting cells as in (A) but with S^35-labeled EBs, followed by sequential immunoprecipitation of Tarp and MOMP and Phosphoimager analysis of precipitated material (C (I-IV)). Tarp is degraded in pre-infected HeLa cells in a CPAF-dependent manner. (D) Effective inhibition of CPAF activity by inhibitory peptide. IC50 values were determined by assessing CPAF cleavage of an Abz-tagged CPAF substrate (SEQ ID NO:9) by HPLC. Assays were performed the presence of increasing amount of inhibitors. […] CPAF cleavage of GST-chlamydial substrates was performed as in FIG. 4B but in the presence of SEQ ID NO:7 and SEQ ID NO:11 peptides (E). For in vivo inhibition effects on Chlamydia (L2), infected HeLa cells were treated with peptides at 12 hpi, and harvested at 30 hpi (F). […] (G and H) CPAF restricts EB entry into preinfected cells. Cells were infected as in (A), except that the secondary infections (30 min) were performed with fluorescently labeled EBs and infected cells were not permeabilized. […] Extracellular bacteria were determined. […] The number of internalized EBs was quantified per cell (H). […]
Next, HeLa cells or inclusion-containing HeLa cells were infected with ^35S-radiolabeled EBs, followed by immunoprecipitation of Tarp at various times after infection to determine the stability of translocated Tarp under these conditions. […] Tarp and MOMP were immunoprecipitated using anti-Tarp and anti-MOMP protein A sepharose beads (available from GE Healthcare), detected in a Typhoon9410 Variable Image Phosphor Imager (available from Amersham Biosciences), and quantified using ImageQuant 5.1TL software (available from GE Healthcare). […]

[2] = test system: epithelial cells infected with C. trachomatis; test: Host cell death (condensed nuclei) in C. trachomatis infected cells; format: cell-based; details: dose-dependent, peptide at 12 hpi
Experimental: FIG. 11 depicts (A) that inhibiting CPAF activity induces host cell death. The indicated peptides (anti-CPAF peptide refers to SEQ ID NO:7) were added to infected cells 12 hpi and the percentage of infected cells with condensed nuclei was quantified at the indicated times. (B-C) Inhibition of CPAF activity induces apoptosis. Infected cells were treated with peptides and the percentage of AnnexinV-FITC positive (propidium iodide (PI) negative) was determined by flow cytometry (B). In parallel samples, cleavage of Caspase-3, a hallmark of apoptosome activation, was monitored by immunoblot analysis. Actin and MOMP are host and bacterial loading controls respectively. Staurosporine (2 μM)-treatment was used as a positive control and the pan-caspase inhibitor ZVAD-FMK were used as controls. (D) Cell death is blocked by a pan-Caspase inhibitor. Infected cells were treated as in (A) in the presence or absence of ZVAD-FMK, labeled with PI and analyzed by flow cytometry. Cells pre-treated with ZVAD-FMK and the control peptide lacked PI staining.
FIG. 12 depicts (A) low-magnification view of C. trachomatis LGV-L2 infected HeLa monolayers (30 h) treated with SEQ ID NO:7 or SEQ ID NO:11 peptides. […] HeLa cells infected with C. muridarum were treated with Ac-YVAD-CMK at 2 hpi, SEQ ID NO:7 peptide or SEQ ID NO:11 control peptide at 12 hpi and the percentage of infected cells with condensed nuclei was assessed at 48 hpi (F). […] The percentage of infected cells with condensed nuclei was assessed at 48 hpi (G). […] Cell death in infected and uninfected cells treated with CPAF inhibitory peptides or control peptides was determined by counting the number of condensed nuclei of ˜1000 cells.
FIG. 13 depicts (A) that Caspase-1 inhibitors block Chlamydia-mediated cell death. […] Cells were fixed and the percentage of cells with condensed nuclei determined at 24 hpi. […] Infected cells were labeled with a cell-permeable fluorescent substrate of Caspase-1 and treated with inhibitory peptides, and Caspase-1 activity was monitored by flow cytometry. […]

[3] = test system: epithelial cells infected with C. muridarum; test: Host cell death (condensed nuclei) in C. muridarum infected cells; format: cell-based; details: dose-dependent, peptide at 12 hpi
Experimental: FIG. 12 depicts (A) low-magnification view of C. trachomatis LGV-L2 infected HeLa monolayers (30 h) treated with SEQ ID NO:7 or SEQ ID NO:11 peptides. (B) The frequency of condensed nuclei in treated cells is dependent on peptide concentration and Chlamydia infection. (C-D) Toxicity of CPAF inhibitors to Chlamydia-infected cells is observed in non-myeloid cells including human embryonic kidney cells HEK293 (C) and mouse embryo fibroblasts (D). […] (F-G) Cell death induced by anti-CPAF peptides requires Caspase-1 activation. HeLa cells infected with C. muridarum were treated with Ac-YVAD-CMK at 2 hpi, SEQ ID NO:7 peptide or SEQ ID NO:11 control peptide at 12 hpi and the percentage of infected cells with condensed nuclei was assessed at 48 hpi (F). Mouse lung fibroblasts (MLF) derived from congenic WT, ICE1^−/− and ASC^−/− animals were infected with C. muridarum and treated with the indicated concentrations of anti peptides 12 hpi. The percentage of infected cells with condensed nuclei was assessed at 48 hpi (G). LGV-L2 inclusions were immunostained with anti-L2 antisera and C. muridarum and C. caviae inclusions were immunostained with an anti-chlamydial LPS monoclonal antibody. Cell death in infected and uninfected cells treated with CPAF inhibitory peptides or control peptides was determined by counting the number of condensed nuclei of ˜1000 cells.

How did the “Accumulation of Tyr-phosphorylated proteins at EB attachment sites” value ([1]; pre-infected HeLa cells (30 h), 12 μM peptide) turn out when “SLFYSPMVPHFWAELRNHYATSGLKRRRRRRRRR-NH2 [SEQ ID NO:7]” was run?
Its value is “restored the accumulation”.

What about the “Degradation of Tarp in pulse-chase experiments” value ([1]; pre-infected HeLa cells, 35S-labeled EBs, 12 μM peptide) of the same substance?
The value was “blocked the degradation of Tarp”.

What about the “EB entry into preinfected cells” value ([1]; secondary infection 30 min, labeled EBs) of the same substance?
Its value is “increased EB entry”.

And the “Number of condensed nuclei in C. trachomatis infected cells” value [2]?
Its value is “marked increase in the number of condensed nuclei”.

What about the “Number of condensed nuclei in C. muridarum infected cells” value [3] of the same substance?
The value was “marked increase in the number of condensed nuclei”.
